Data on 1 compound can be found in patent US7491545B2, “Excitation ratiometric fluoroscent biosensor for zinc ion at picomolar levels” (priority 2002, dated 2009).

Entries after “also recorded” stand apart in the source; their conditions may differ.

For one data set, the target named is holo carbonic anhydrase (Homo sapiens, UniProt P00918). The settings on record: read-out: Kd of binding to holoprotein; cited from earlier work.
The test system of the next data set is cell membranes. The data set can be described thus: Cell permeation of donor fluorophore.

Regarding `CN(C)c1ccc(-c2cnc(-c3ccc(S(N)(=O)=O)cc3)o2)cc1` [Dapoxyl sulfonamide], at holo carbonic anhydrase, the Kd – broadly, the concentration at which binding is half-saturated – is 200 nM. In addition, the cell permeability result in the data set on cell membranes is on record as “readily penetrates cell membranes; also recorded: rapidly cell-permeant”.
